The numbers were not newly measured in US20070122363A1, “CORPOREAL DELIVERY OF CAROTENOIDS” (priority 2005, published 2007), which cites them from elsewhere.

Each structure is given as a SMILES string.

For this data set the following is noted: 50 mg daily, about 22,000 male physicians, versus placebo.

As to `CC1=C(/C=C/C(C)=C/C=C/C(C)=C/C=C/C=C(C)/C=C/C=C(C)/C=C/C2=C(C)CCCC2(C)C)C(C)(C)CCC1` [beta-carotene, beta, beta-carotene], the adverse health effects result is “no adverse health effects”.
